Structures are written as SMILES. Read-outs that look alike come from different tables or passages of the source.

We go through two compounds from patent publication EP1210336B1, “SUBSTITUTED BENZIMIDAZOLES AS NON-NUCLEOSIDE INHIBITORS OF REVERSE TRANSCRIPTASE” (THE UNITED STATES OF AMERICA, as represented by the …, priority 1999, dated 2001).

Data set [1] deals with T1, HIV-1 WT RT (Human immunodeficiency virus type 1 group M subtype B, UniProt P03366).
T1 construct: purified RT protein (0.015 mg/mL) was incubated in a 100 µL reaction mixture
The note with it: reported by Pauwels et al. (TIBO) and Buckheit et al. (thiazolobenzimidazole); read-out: IC50 for rC:dG; cited from earlier work.

Data set [2] concerns HIV-1 isolate 4xAZT/Y181C. The data set can be described thus: Cytopathic cell killing assay, cross-resistance profile, infected MT-4 cells. In kind it is cell-based. In a few lines: (§1)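 Cells seeded at 5 x 10^3 per well and infected with pre-titered HIV at MOI giving full killing by day 6 (e.g., 0.01-0.05). Compounds tested in triplicate serial half-log dilutions. Viability measured after six days at 37°C by XTT formazan at 450 nm; TI50 = fold-difference between EC50 and IC50.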
Background: Protection from cytopathic effect is a common read-out in antiviral testing.

The subject of data set [3] is HIV-1 variant V179D. The data set is described as above. In kind it is cell-based. The note with it: isolate V179D. In a few lines:
as §1

Data set [4] deals with NL4-3 (WT). The data set is described as above. Type of data set: cell-based, HIV-1. The method in brief: as §1
Data set [5] relates to WT virus (NL4-3). The data set can be described thus: microbe, parasite or virus in culture. Type of data set: cell-based, HIV-1. Particulars: for EC50: Human immunodeficiency virus 1, NL43, CEM-SS, read-out: EC50. The method in brief:
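CEM-SS cells (5 x 10^3/well) infected with HIV-1 at an MOI giving complete killing by day 6 (e.g., 0.01-0.05), with serial half-log compound dilutions in triplicate. After 6 days at 37°C, viability read by XTT reduction at 450 nm. CIC50 derived from protection against cytopathic killing.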

[6] abbreviates: Human immunodeficiency virus 1, MT4, Table 4, isolate 4xAZT/Y181C.
Where [7] appears, read: Human immunodeficiency virus 1, MT4, Table 8, isolate 4XAZT /Y181C.
The mark [8] stands for this setting: Human immunodeficiency virus 1, MT4, Table 4.
The mark [9] stands for this setting: Human immunodeficiency virus 1, MT4, Table 8.
The mark [10] stands for this setting: Human immunodeficiency virus 1, MT4, Table 9.
Setting [11] is: Human immunodeficiency virus 1, NL43, MT4, Table 4, isolate NL4-3 (WT).
The mark [12] stands for this setting: Human immunodeficiency virus 1, NL43, MT4, Table 8, isolate N1.43.
The mark [13] stands for this setting: Human immunodeficiency virus 1, NL43, MT4, Table 9, isolate NL4.3.

As usually defined, the IC50 is the concentration needed to halve the response being measured. What is called EC50 is the midpoint of the concentration-response curve. Take `Fc1cccc(F)c1C1SCc2nc3ccccc3n21` (stereo not drawn) [TZB, 1-(2,6-difluorophenyl)-1H,3H-thiazolo[3,4-a]benzimidazole, reference compound]: the IC50 in data set [1] is 500 nM. In addition, the EC50 in data set [2] (setting [6]) was 14500 nM; in data set [2] (setting [7]) it was greater than 10000 nM; in data set [2] (Human immunodeficiency virus 1, MT4, Table 9, isolate 4XAZT /Y181C) it was greater than 10000 nM; in data set [3] (setting [8]) it was 3100 nM; in data set [3] (setting [9]) it was greater than 10000 nM; in data set [3] (setting [10]) it was 3900 nM. Besides, the EC50 was 1.7 µM in data set [4] (setting [11]), 10 µM in data set [4] (setting [12]) and 1 µM in data set [4] (setting [13]).

On to `Cc1cccc2c1nc(-c1c(F)cccc1F)n2Cc1c(F)cccc1F` [compound 33, 1-(2,6-difluorobenzyl)-2-(2,6-difluorophenyl)-4-methylbenzimidazole], for which the EC50 in data set [2] (setting [6]) worked out at 3500 nM; in data set [2] (setting [7]) it was 3500 nM; in data set [3] (setting [8]), 500 nM; in data set [3] (setting [9]) it was 700 nM; in data set [3] (setting [10]), 700 nM; in data set [5] (Table 7, concentration reducing cell killing or virus production by 50%, HIV-1 WT) it was 440 nM. For the same compound, the EC50 is 440 nM in data set [5] (Table 11, CEMSS/NL4-3, NRVC = reduction in viral CPE not seen (footnote)); 0.5 µM in data set [4] (setting [11]); 0.5 µM in data set [4] (setting [12]); 0.5 µM in data set [4] (setting [13]); 0.5 µM in data set [4] (Human immunodeficiency virus 1, NL43, MT4, Table 10 (values in µM), isolate NL4-3 (WT)). The “cytotoxicity and anti-viral effect (summary graph)” value in data set [5] (Figures 10-12, result in words) is “very effective therapeutic dose”. The therapeutic index result in data set [5] (difference between efficacy of the drug and cellular toxicity, Figure 10) was “greater than one log in concentration”. In addition, the “-fold better in the inhibition of the various viral isolates than the des-methyl analog 26” value in data set [4] (various viral isolates of Table 4) is 3- to 4 fold.
